Experimental data: US8765748B2, “Indazolyl, benzimidazolyl, benzotriazolyl substituted indolinone derivatives as kinase inhibitors useful in the treatment of cancer” (University Health Network, priority 2007, dated 2014)
Where two headings read alike, the source gives them in different places.

Experiments:
TRKA = TRKA (Homo sapiens, UniProt P04629); assay: Kinase Selectivity Assay (CEREP, HTRF); assay type: biochemical; parameters: purchased CEREP, France (contract assay service); conditions: read-out: % Inhibition at 10 μM Concentration, TRKA
Sequence of TRKA (P04629 33-796): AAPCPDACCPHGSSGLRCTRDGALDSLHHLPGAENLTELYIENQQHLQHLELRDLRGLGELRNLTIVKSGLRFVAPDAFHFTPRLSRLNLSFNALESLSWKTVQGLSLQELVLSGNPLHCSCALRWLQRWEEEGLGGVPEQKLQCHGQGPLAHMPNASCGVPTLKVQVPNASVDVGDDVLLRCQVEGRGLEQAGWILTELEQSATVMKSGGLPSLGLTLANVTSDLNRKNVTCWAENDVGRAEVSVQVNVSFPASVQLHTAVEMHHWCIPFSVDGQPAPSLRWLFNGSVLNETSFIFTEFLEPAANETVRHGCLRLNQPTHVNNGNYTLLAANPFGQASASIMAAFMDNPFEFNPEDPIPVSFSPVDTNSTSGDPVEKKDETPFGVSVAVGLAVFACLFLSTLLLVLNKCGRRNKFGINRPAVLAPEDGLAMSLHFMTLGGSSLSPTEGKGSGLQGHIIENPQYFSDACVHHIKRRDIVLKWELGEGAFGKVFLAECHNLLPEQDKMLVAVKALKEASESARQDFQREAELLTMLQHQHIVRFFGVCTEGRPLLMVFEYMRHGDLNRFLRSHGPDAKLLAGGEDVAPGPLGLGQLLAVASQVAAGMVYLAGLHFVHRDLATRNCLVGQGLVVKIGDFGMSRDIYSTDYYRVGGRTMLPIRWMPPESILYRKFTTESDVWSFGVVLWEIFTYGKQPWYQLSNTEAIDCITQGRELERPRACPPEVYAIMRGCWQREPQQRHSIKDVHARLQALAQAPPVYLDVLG
Experimental: kinase, ROCK2, RSK2, Src kinase, Syk, and TRKA. The % Inhibition was determined

[1] = tested on: MDA-MB-231 breast cancer cell line; assay: Cell growth inhibition, SRB assay, extended panel; assay type: cell-based; conditions: Homo sapiens, read-out: GI50 Range, MDA-MB-231
Experimental: (§1) Breast cancer cells (MCF-7, MDA-MB-468, HCC1954), colon cancer cells (SW620) and lung cancer cells (A549), together with human mammary epithelial primary cells (HMEC), were seeded (1000 to 4000 per 80 μl per well depending on the cell growth rate) into 96 well plates, 24 hours before compound overlay. Compounds were prepared as 10 mM stock solutions in 100% DMSO which were diluted with DMEM (Dulbecco's Modified Eagle's Medium) cell growth Medium (Invitrogen, Burlington, ON, Canada) containing 10% FBS (Fetal Bovine Serum) to concentrations ranging from 50 nM to 250 μM. Aliquots (20 μl) from each concentration were overlaid to 80 μl of the pre-seeded cells in the 96 well plates to make final concentrations of 10 nM to 50 μM. The cells were cultured for 5 days before the Sulforhodamine B assay (SRB) was performed to determine the compound's cell growth inhibition activity.
(§2) Sulforhodamine B (purchased from Sigma, Oakville, ON, Canada) is a water-soluble dye that binds to the basic amino acids of the cellular proteins. Thus, colorimetric measurement of the bound dye provides an estimate of the total protein mass that is related to the cell number. the cells are fixed in situ by gently aspirating off the culture media and adding 50 μl ice cold 10% Tri-chloroacetic Acid (TCA) per well and incubate at 4° C. for 30-60 min, The plates are washed with water five times and allowed to air dry for 5 min. Addition of 50 μl 0.4% (w/v) SRB solution in 1% (v/v) acetic acid to each well and incubatation for 30 min at RT completes the staining reaction. Following staining, plates are washed four times with 1% acetic acid to remove unbound dye and then allowed to air dry for 5 min. The stain is solubilized with 100 μl of 10 mM Tris pH10.5 per well. Absorbance is read at 570 nm.
(§3) The percentage (%) of relative growth inhibition was calculated by comparing to DMSO treated only cells (100%). GI50's were determined for compounds with cytotoxic activity. The GI50 was calculated using GraphPad PRISM software (GraphPad Software, Inc., San Diego, Calif., USA).
(§4) In addition to the cell lines tested as described above, selected compounds have been assayed against an extended panel. […] The sulforhodamine B assay (SRB) described above was use to assay test compounds against the extended panel (Table 9).

[2] = tested on: HCT116+/− colon cancer cell line; assay: Cell growth inhibition, SRB assay, extended panel; assay type: cell-based; conditions: Homo sapiens, HCT-116, read-out: GI50 Range, HCT116+/−
Experimental: as §1, §2, §3, §4

[3] = tested on: SKBR3 breast cancer cell line; assay: Cell growth inhibition, SRB assay, extended panel; assay type: cell-based; conditions: Homo sapiens, SK-BR-3, read-out: GI50 Range, SKBR3
Experimental: as §1, §2, §3, §4

[4] = tested on: BT474 breast cancer cell line; assay: Cell growth inhibition, SRB assay, extended panel; assay type: cell-based; conditions: Homo sapiens, BT-474, read-out: GI50 Range, BT474
Experimental: as §1, §2, §3, §4

[5] = tested on: human mammary epithelial primary cells (HMEC); assay: Cell growth inhibition, Sulforhodamine B assay (SRB); assay type: cell-based; conditions: 120 h, 5 days culture, read-out: Cell Line GI50 Range, HMEC
Outline: (§5)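 Cells seeded 24 h before compound addition, then exposed to 10 nM–50 μM final compound in DMEM + 10% FBS for 5 days. Growth measured by TCA fixation, SRB staining and absorbance at 570 nm; % inhibition relative to DMSO-only cells, with GI50 fitted for cytotoxic compounds.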

[6] = tested on: MCF-7 luminal breast cancer cell line; assay: as above; assay type: cell-based; conditions: Homo sapiens, MCF7, 120 h; 5 days culture, SRB; read-out: Cell Line GI50 Range, MCF-7
Outline: as §5

A549 lung cancer cells = assay: as above; assay type: cell-based; conditions: Homo sapiens, A549, 120 h, 5 days culture, read-out: Cell Line GI50 Range, A-549
Outline: as §5

SW620 colon cancer cells = assay: as above; assay type: cell-based; conditions: Homo sapiens, SW-620, 120 h, 5 days culture, read-out: Cell Line GI50 Range, SW-620
Outline: as §5

[7] = tested on: HCC1954 basal breast cancer cell line; assay: as above; assay type: cell-based; conditions: Homo sapiens
Outline: as §5

[8] = tested on: MDA-MB-468 basal breast cancer cell line; assay: as above; assay type: cell-based; conditions: Homo sapiens, MDA-MB-468, 120 h; 5 days culture, SRB; read-out: Cell Line GI50 Range, MDA-MB-468
Outline: as §5

FGFR1 = assay: Millipore kinase assay, radiolabelled phosphopeptide filter binding, IC50 estimate; assay type: biochemical; conditions: estimated from inhibition at three compound concentrations; ATP at the Km
Experimental: (§6) Kinase assays at Millipore were performed using a radiolabelled phosphopeptide filter binding detection system, in duplicate, at each compound concentration. The ATP substrate concentration in the reactions was at the Km for each enzyme.
(§7) To allow for a more direct comparison of compound inhibition, an IC50 value was estimated from the inhibition determined at three compound concentrations. Several assumptions were made to allow this calculation using a 4 parameter non linear curve fit model, including full inhibition set at 100%, no inhibition set to 0%, and a curve fit parameter set at 1. The inflection point was reported as the estimated IC50.

PDGFRβ = molecular target: T1, PDGFRβ (Homo sapiens, UniProt P09619); assay: as above; assay type: biochemical; conditions: estimated from inhibition at three compound concentrations; ATP at the Km
T1 construct: purchased Millipore (assay service)
T1 sequence (P09619 33-1106): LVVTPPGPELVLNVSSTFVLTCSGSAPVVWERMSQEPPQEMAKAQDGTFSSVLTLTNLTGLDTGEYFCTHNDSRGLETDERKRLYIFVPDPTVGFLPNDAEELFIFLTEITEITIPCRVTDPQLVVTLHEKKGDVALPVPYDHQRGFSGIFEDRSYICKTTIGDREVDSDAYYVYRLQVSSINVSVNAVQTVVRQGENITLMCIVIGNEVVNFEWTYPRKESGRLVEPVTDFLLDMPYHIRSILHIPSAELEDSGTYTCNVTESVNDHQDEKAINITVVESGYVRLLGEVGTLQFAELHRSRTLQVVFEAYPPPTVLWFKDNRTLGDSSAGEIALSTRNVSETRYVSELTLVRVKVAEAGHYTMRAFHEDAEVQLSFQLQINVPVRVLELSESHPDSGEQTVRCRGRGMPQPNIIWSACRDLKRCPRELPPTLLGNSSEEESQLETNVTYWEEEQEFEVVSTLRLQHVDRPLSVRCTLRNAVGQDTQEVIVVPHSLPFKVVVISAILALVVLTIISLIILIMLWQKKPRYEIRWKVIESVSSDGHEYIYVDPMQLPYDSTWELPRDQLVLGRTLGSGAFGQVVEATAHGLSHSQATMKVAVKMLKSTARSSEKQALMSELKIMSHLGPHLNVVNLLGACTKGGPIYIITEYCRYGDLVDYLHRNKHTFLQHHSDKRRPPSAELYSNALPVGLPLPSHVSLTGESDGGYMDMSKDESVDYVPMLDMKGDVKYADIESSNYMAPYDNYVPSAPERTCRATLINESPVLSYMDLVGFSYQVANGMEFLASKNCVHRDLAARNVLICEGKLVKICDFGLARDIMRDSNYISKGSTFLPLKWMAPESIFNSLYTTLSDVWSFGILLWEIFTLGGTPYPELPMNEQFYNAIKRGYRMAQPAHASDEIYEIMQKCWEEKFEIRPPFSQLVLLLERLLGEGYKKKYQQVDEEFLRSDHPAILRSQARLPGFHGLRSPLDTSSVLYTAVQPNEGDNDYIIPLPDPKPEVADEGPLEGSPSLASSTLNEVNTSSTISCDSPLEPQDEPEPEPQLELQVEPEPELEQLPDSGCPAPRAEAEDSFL
Experimental: as §6, §7

FLT-1 = molecular target: T2, FLT-1 (Homo sapiens, UniProt P17948); assay: as above; assay type: biochemical; conditions: estimated from inhibition at three compound concentrations; ATP at the Km
T2 construct: purchased Millipore (assay service)
T2 sequence (P17948 27-1338): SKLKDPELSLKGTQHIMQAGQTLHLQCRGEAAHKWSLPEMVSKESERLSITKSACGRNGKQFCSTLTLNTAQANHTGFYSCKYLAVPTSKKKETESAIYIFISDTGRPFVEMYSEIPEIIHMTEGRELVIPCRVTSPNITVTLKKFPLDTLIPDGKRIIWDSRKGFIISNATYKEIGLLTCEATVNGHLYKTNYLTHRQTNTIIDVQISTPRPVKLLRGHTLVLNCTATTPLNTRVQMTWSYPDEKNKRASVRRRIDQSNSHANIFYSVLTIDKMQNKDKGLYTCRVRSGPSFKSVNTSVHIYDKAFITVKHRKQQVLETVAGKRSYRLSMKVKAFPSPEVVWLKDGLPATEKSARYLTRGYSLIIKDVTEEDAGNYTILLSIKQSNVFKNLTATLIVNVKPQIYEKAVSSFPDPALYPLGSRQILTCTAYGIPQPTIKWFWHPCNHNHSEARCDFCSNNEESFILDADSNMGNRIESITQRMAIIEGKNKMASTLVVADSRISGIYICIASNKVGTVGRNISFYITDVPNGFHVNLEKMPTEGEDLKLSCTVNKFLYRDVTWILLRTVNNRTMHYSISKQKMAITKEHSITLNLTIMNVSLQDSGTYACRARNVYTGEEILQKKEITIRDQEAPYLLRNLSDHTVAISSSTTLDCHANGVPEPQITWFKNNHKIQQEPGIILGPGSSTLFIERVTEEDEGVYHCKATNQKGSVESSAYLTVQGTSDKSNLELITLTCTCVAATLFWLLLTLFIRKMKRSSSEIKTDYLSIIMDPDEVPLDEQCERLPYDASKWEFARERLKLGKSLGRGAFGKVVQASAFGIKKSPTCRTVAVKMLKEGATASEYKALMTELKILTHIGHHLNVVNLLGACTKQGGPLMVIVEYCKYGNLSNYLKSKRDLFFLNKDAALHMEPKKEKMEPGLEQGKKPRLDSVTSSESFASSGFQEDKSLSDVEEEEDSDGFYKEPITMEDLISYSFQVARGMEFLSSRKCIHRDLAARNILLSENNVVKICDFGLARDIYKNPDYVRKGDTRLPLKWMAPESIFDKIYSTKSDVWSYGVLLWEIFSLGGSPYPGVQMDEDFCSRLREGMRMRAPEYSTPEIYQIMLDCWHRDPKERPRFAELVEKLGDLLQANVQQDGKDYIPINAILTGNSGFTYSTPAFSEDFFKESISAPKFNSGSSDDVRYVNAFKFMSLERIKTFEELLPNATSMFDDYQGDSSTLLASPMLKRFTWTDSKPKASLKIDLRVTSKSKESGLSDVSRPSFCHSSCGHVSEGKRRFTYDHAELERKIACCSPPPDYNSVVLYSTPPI
Experimental: as §6, §7

[9] = tested on: HCT-15 colon cancer cell line; assay: Cell growth inhibition, SRB assay, extended panel; assay type: cell-based; conditions: Homo sapiens, read-out: GI50 Range, HCT-15
Experimental: as §1, §2, §3, §4

[10] = tested on: Hs683 brain cancer cell line; assay: Cell growth inhibition, SRB assay, extended panel; assay type: cell-based; conditions: Homo sapiens, Hs 683, read-out: GI50 Range, Hs683
Experimental: as §1, §2, §3, §4

[11] = tested on: OVCAR-3 ovarian cancer cell line; assay: Cell growth inhibition, SRB assay, extended panel; assay type: cell-based; conditions: Homo sapiens, read-out: GI50 Range, OVCAR-3
Experimental: as §1, §2, §3, §4

[12] = tested on: SK-N-SH brain cancer cell line; assay: Cell growth inhibition, SRB assay, extended panel; assay type: cell-based; conditions: Homo sapiens, read-out: GI50 Range, SK-N-SH
Experimental: as §1, §2, §3, §4

[13] = tested on: SK-OV-3 ovarian cancer cell line; assay: Cell growth inhibition, SRB assay, extended panel; assay type: cell-based; conditions: Homo sapiens, read-out: GI50 Range, SK-OV-3
Experimental: as §1, §2, §3, §4

518A2 melanoma cell line = assay: Cell growth inhibition, SRB assay, extended panel; assay type: cell-based; conditions: Homo sapiens, read-out: GI50 Range, 518A2
Experimental: as §1, §2, §3, §4

[14] = HCC1954, 120 h, 5 days culture, read-out: Cell Line GI50 Range, HCC-1954
[15] = HCC1954, extended panel (Table 9), read-out: GI50 Range, HCC1954

SMILES	inhibition at 10 µM (TRKA) [%]	GI50 [1] [µM]	GI50 [2] [µM]	GI50 [3] [µM]	GI50 [4] [µM]	GI50 [5] [µM]	GI50 [6] [µM]	GI50 (A549 lung cancer cells) [µM]	GI50 (SW620 colon cancer cells) [µM]	GI50 [7, 14] [µM]	GI50 [7, 15] [µM]	GI50 [8] [µM]	IC50 (FGFR1) [µM]	IC50 (PDGFRβ) [µM]	IC50 (FLT-1) [µM]	GI50 [9] [µM]	GI50 [10] [µM]	GI50 [11] [µM]	GI50 [12] [µM]	GI50 [13] [µM]	also measured
O=C1Nc2ccccc2/C1=C\c1ccc2cn[nH]c2c1 [Example A5, (E)-3-((1H-indazol-6-yl)methylene)indolin-2-one]	60																				
COc1ccc2c(c1)C(=Cc1ccc3c(-c4ccc(N5CCN(C)CC5)nc4)n[nH]c3c1)C(=O)N2 (mixture of isomers) [Example A97, (E and Z)-5-methoxy-3-((3-(6-(4-methylpiperazin-1-yl)pyridin-3-yl)-1H-indazol-6-yl)methylene)indolin-2-one]	93	< 5	< 5	< 5	< 5	20 to 50	< 5	< 5	< 5	< 5	< 5	< 5	< 5	5 to 50	< 5						
CN1CCN(c2ccc(/C=C/c3n[nH]c4cc(C=C5C(=O)Nc6ccccc65)ccc34)cn2)CC1 (mixture of isomers) [Example A108, (E and Z)-3-((3-((E)-2-(6-(4-methylpiperazin-1-yl)pyridin-3-yl)vinyl)-1H-indazol-6-yl)methylene)indolin-2-one]		< 5	< 5	< 5	< 5	< 5	< 5	< 5	< 5	< 5	< 5	< 5				< 5	< 5	< 5	< 5	< 5	GI50 (518A2 melanoma cell line): < 5 µM
O=C1Nc2ccccc2/C1=C\c1ccc2[nH]nnc2c1 [Example A1, (E)-3-((1H-benzo[d][1,2,3]triazol-5-yl)methylene)indolin-2-one]	-13																				
O=C1Nc2ccccc2C1=Cc1ccc2c(/C=C/c3ccccn3)n[nH]c2c1 (mixture of isomers) [Example A41, (E and Z)-3-((3-((E)-2-(pyridin-2-yl)vinyl)-1H-indazol-6-yl)methylene)indolin-2-one]	99	5 to 20	> 50	< 5	> 50	> 50	< 5	5 to 20	5 to 20	20 to 50	< 5	< 5	< 5	< 5	< 5	< 5	< 5	> 50	< 5	> 50	GI50 (518A2 melanoma cell line): < 5 µM
O=C1Nc2ncc(Br)cc2C1=Cc1ccc2c(/C=C/c3ccncc3)n[nH]c2c1 (mixture of isomers) [Example A109, (E and Z)-5-bromo-3-((3-((E)-2-(pyridin-4-yl)vinyl)-1H-indazol-6-yl)methyl-ene)-1H-pyrrolo[2,3-b]pyridin-2(3H)-one]		< 5	< 5	> 50	5 to 20	> 50	< 5	< 5	< 5	> 50	> 50	< 5				< 5	< 5	< 5	< 5	5 to 20	GI50 (518A2 melanoma cell line): < 5 µM
CN(C)Cc1ccc(/C=C/c2n[nH]c3cc(C=C4C(=O)Nc5ccccc54)ccc23)cc1 (mixture of isomers) [Example A106, (E and Z)-3-[(3-{(E)-2-[4-((dimethylamino)methyl)-phenyl]-ethenyl}-1H-indazol-6-yl)methylidene]-1,3-dihydro-2H-indol-2-one 2,2,2-trifluoroacetate]						5 to 20	< 5	< 5	< 5	< 5		< 5	< 5	< 5	< 5						
O=C1Nc2ccccc2/C1=C\c1ccc2c(/C=C/c3ccccc3Cl)n[nH]c2c1 [Example A60, (E)-3-((3-((E)-2-chlorostyryl)-1H-indazol-6-yl)methylene)indolin-2-one]	75																				
